# Experimental data from patent publication US5436369A, “Alicyclic phospholipase A2 inhibitors” (Bristol-Myers Squibb Company, priority 1994, dated 1995).
# Target: T1, PLA2 (Homo sapiens, UniProt P14555)
# T1 construct: The enzyme is isolated from human platelets; from tissue; host or cells: human platelets
# T1 sequence (P14555 21-144): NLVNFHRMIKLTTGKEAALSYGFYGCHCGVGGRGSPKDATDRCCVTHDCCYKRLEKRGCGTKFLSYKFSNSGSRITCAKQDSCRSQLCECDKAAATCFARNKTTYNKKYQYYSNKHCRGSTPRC
# Assay: PLA2 Inhibition Assay (14C-oleate labeled E. coli membrane substrate)
# Assay type: biochemical
# Settings: Table 1, Structure 11 (Type IA); 100 μM; enzyme isolated from human platelets
# Method: The method used is similar to that reported by Franson, et al. [Jesse, R. L. and Franson R. C., Biochim. Biophys. Acta 575:467-470 (1979); Franson, R. C., Patriarca, P., and Elsback, P., J. Lipid Res. 15: 380-388 (1974)]. The enzyme is isolated from human platelets. The substrate used consists of ^14 C-oleate labeled Escherichia coli membranes. E. coli cells are grown in the presence of ^14 C-oleic acid and then autoclaved to prepare the membranes.
# Various concentrations of test compounds are pre-incubated with PLA2 (3.6 μg/mL in a buffer consisting of 25 mM HEPES (pH 7)), 150 mM NaCl, 5.0 mM CaCl2, and 10% DMSO (v/v, test compound solvent) at 37° C. for 7 minutes. The E. coli membrane substrate is then added (0.1 mM phospholipid, 0.005 μCi ^14 C) and the reaction is then incubated at 37° C. for 30 minutes. The reaction is then terminated by the addition of 1.9 mL tetrahydrofuran (THF), and the entire solution is applied to a solid-phase extraction column (aminopropyl resin, Analytichem). The column is rinsed with an additional 1 mL of THF. The free fatty acid product of the reaction is then eluted from the column with 1 mL of 2% acetic acid in THF and collected in a scintillation vial. The amount of free fatty acid product is determined by liquid scintillation counting. The amount of inhibition produced by the test compound is calculated by comparing the counts obtained in the presence of the compound to those obtained in its absence (solvent only). Background counts were determined by performing incubations in the absence of enzyme.
# Percent inhibition is determined by the equation: [formula]
row,SMILES,inhibition at 100 µM
1,"O=C(O)/C=C\C(=C\c1ccccc1)c1cccc(C(=O)O)c1 [Structure 11a, (2Z),(4Z)-4-(3-Carboxyphenyl)-5-phenyl-2,4-pentadienoic acid]",6%
2,"CC1(C)CCC(C)(C)c2cc(/C=C(/C=C\C(=O)O)c3cccc(C(=O)O)c3)ccc21 [Structure 11b, (2Z),(4Z)-4-(3-Carboxyphenyl)-5-(5,6,7,8-tetrahydro-5,5,8,8-tetramethyl-2-naphthalenyl)-2,4-pentadienoic acid]",44%
3,"CC1(C)CCC(C)(C)c2cc3cc(/C=C(/C=C\C(=O)O)c4cccc(C(=O)O)c4)ccc3cc21 [Structure 11c, (2Z),(4Z)-4-(3-Carboxyphenyl)-5-(5,6,7,8-tetrahydro-5,5,8,8-tetramethyl-2-anthracenyl)-2,4-pentadienoic acid]",97%
4,"CCCCCCCCCCOc1ccc(/C=C(/C=C\C(=O)O)c2cccc(C(=O)O)c2)cc1 [Structure 11d, (2Z),(4Z)-4-(3-Carboxyphenyl)-5-(4-decyloxyphenyl)-2,4-pentadienoic acid]",100%
5,"CCCCCCCCCCOc1ccc(/C=C(/C=C\C(=O)O)c2cccc(C(=O)O)c2)cc1OCCCCCCCCCC [Structure 11e, (2Z),(4Z)-4-(3-Carboxyphenyl)-5-(3,4-bisdecyloxyphenyl)-2,4-pentadienoic a cid]",100%
6,"O=C(O)/C=C\C(=C\CCc1ccccc1)c1cccc(C(=O)O)c1 [Structure 11f, (2Z),(4Z)-4-(3-Carboxyphenyl)-7-phenyl-2,4-heptadienoic acid]",15%
7,"CC1(C)CCC(C)(C)c2cc(CC/C=C(/C=C\C(=O)O)c3cccc(C(=O)O)c3)ccc21 [Structure 11g, (2Z),(4Z)-4-(3-Carboxyphenyl)-7-(5,6,7,8-tetrahydro-5,5,8,8-tetramethyl-2-naphthalenyl)-2,4-heptadienoic acid]",58%
8,"C\C(=C/C=C(/C=C\C(=O)O)c1cccc(C(=O)O)c1)c1ccc2c(c1)C(C)(C)CCC2(C)C [Structure 11h, (2Z),(4Z),(6E)-4-(3-Carboxyphenyl)-7-(5,6,7,8-tetrahydro-5,5,8,8-tetramethyl-2-naphthalenyl)-2,4,6-octatrienoic acid]",97%
9,"COc1cc(CC/C=C(/C=C\C(=O)O)c2cccc(C(=O)O)c2)ccc1C12CC3CC(CC(C3)C1)C2 [Structure 11i, (2Z),(4Z)-4-(3-Carboxyphenyl)-7-[4-(1-adamantyl)-3-methoxyphenyl]-2,4-heptadienoic acid]",100%
10,"COc1ccc(CC/C=C(/C=C\C(=O)O)c2cccc(C(=O)O)c2)cc1C12CC3CC(CC(C3)C1)C2 [Structure 11j, (2Z),(4Z)-4-(3-Carboxyphenyl)-7-[3-(1-adamantyl)-4-methoxyphenyl]-2,4-heptadienoic acid]",98%
11,"CC(=C/C(=O)O)/C(=C/c1ccc2cc3c(cc2c1)C(C)(C)CCC3(C)C)c1cccc(C(=O)O)c1 [Structure 11k, (2Z),(4Z)-3-Methyl-4-(3-carboxyphenyl)-5-(5,6,7,8-tetrahydro-5,5,8,8-tetramethyl-2-anthracenyl)-2,4-pentadienoic acid]",98%

# Same assay, conditions: Table 2, Structure 14 (Type IA); 100 μM; enzyme isolated from human platelets
SMILES,inhibition at 100 µM,% Inhibition of PLA2 at 100 μM
"CCCCCCCCCCOc1ccc(/C=C(/C=C\C(=O)O)c2cccc(C(F)(F)F)c2)cc1 [Structure 14a, (2Z),(4Z)-4-(3-Trifluoromethylphenyl)-5-(4-decyloxyphenyl)-2,4-pentadienoic acid]",100%,–
"CCCCCCCCCCOc1cccc(/C=C(/C=C\C(=O)O)c2cccc(C(F)(F)F)c2)c1 [Structure 14b, (2Z),(4Z)-4-(3-Trifluoromethylphenyl)-5-(3-decyloxyphenyl)-2,4-pentadienoic acid]",100%,–
"CCCCCCCCCCOc1ccccc1/C=C(/C=C\C(=O)O)c1cccc(C(F)(F)F)c1 [Structure 14c, (2Z),(4Z)-4-(3-Trifluoromethylphenyl)-5-(2-decyloxyphenyl)-2,4-pentadienoic acid]",–,92%
CC(C)=CCC/C(C)=C/COc1ccc(/C=C(/C=C\C(=O)O)c2cccc(C(F)(F)F)c2)cc1 [Structure 14d],98%,–
"CCCCCCCCCCOc1ccc(/C=C(/C=CC(=O)O)c2cccc(C(F)(F)F)c2)cc1OCCCCCCCCCC [Structure 14e, (2Z),(4Z)-4-(3-Trifluoromethylphenyl)-5-(3,4-bisdecyloxyphenyl)-2,4-pentadienoic acid/(2E),(4Z)-4-(3-Trifluoromethylphenyl)-5-(3,4-bisdecyloxyphenyl)-2,4-pentadienoic acid]",99%,–
"CC1(C)CCC(C)(C)c2cc3cc(/C=C(/C=C\C(=O)O)c4cccc(C(F)(F)F)c4)ccc3cc21 [Structure 14f, (2Z), (4Z)-4-(3-trifluoromethylphenyl)-5-(5,6,7,8-tetrahydro-5,5,8,8-tetramethyl-2-anthracenyl)-2,4-pentadienoic acid]",71%,–
"CC1(C)CCC(C)(C)c2cc(CC/C=C(/C=C\C(=O)O)c3cccc(C(F)(F)F)c3)ccc21 [Structure 14g, (2Z),(4Z)-4-(3-Trifluoromethylphenyl)-7-(5,6,7,8-tetrahydro-5,5,8,8-tetramethyl-2-naphthalenyl)-2,4-heptadienoic acid]",96%,–
"CC1(C)CCC(C)(C)c2cc(CC/C=C(/C=C\C(=O)O)c3ccc(F)cc3)ccc21 [Structure 14h, (2Z),(4Z)-4-(4-Fluorophenyl)-7-(5,6,7,8-tetrahydro-5,5,8,8-tetramethyl-2-naphthalenyl)-2,4-heptadienoic acid]",96%,–
"CC1(C)CCC(C)(C)c2cc(CC/C=C(/C=C\C(=O)O)c3cccc(F)c3)ccc21 [Structure 14i, (2Z),(4Z)-4-(3-Fluorophenyl)-7-(5,6,7,8-tetrahydro-5,5,8,8-tetramethyl-2-naphthalenyl)-2,4-heptadienoic acid]",96%,–
"CC1(C)CCC(C)(C)c2cc(CC/C=C(/C=C\C(=O)O)c3ccccc3)ccc21 [Structure 14j, (2Z),(4Z)-4-Phenyl-7-(5,6,7,8-tetrahydro-5,5,8,8-tetramethyl-2-naphthalenyl)-2,4-heptadienoic acid]",92%,–
"COc1ccc(CC/C=C(/C=C\C(=O)O)c2cccc(C(F)(F)F)c2)cc1C12CC3CC(CC(C3)C1)C2 [Structure 14k, (2Z),(4Z)-4-(3-Trifluoromethylphenyl)-7-[3-(1-adamantyl)-4-methoxyphenyl]-2,4-heptadienoic acid]",99%,–
"COc1ccc(CC/C=C(/C=C\C(=O)O)c2ccccc2)cc1C12CC3CC(CC(C3)C1)C2 [Structure 14l, (2Z),(4Z)-4-Phenyl-7-[3-(1-adamantyl)-4-methoxyphenyl]-2,4-heptadienoic acid]",99%,–
"COc1cc(CC/C=C(/C=C\C(=O)O)c2cccc(C(F)(F)F)c2)ccc1C12CC3CC(CC(C3)C1)C2 [Structure 14m, (2Z),(4Z)-4-(3-Trifluoromethylphenyl)-7-[4-(1-adamantyl)-3-methoxyphenyl]-2,4-heptadienoic acid]",99%,–
"COc1cc(CC/C=C(/C=C\C(=O)O)c2ccccc2)ccc1C12CC3CC(CC(C3)C1)C2 [Structure 14n, (2Z),(4Z)-4-Phenyl-7-[4-(1-adamantyl)-3-methoxyphenyl]-2,4-heptadienoicacid]",100%,–
"COc1ccc(CC/C=C(/C=C\C(=O)O)c2cccc(C(F)(F)F)c2)c(C23CC4CC(CC(C4)C2)C3)c1 [Structure 14o, (2Z),(4Z)-4-(3-Trifluoromethylphenyl)-7-[2-(1-adamantyl)-4-methoxyphenyl]-2,4-heptadienoic acid]",99%,–
"COc1cc(/C=C(/C=C\C(=O)O)c2cccc(C(F)(F)F)c2)ccc1C12CC3CC(CC(C3)C1)C2 [Structure 14p, (2Z),(4Z)-4-(3-Trifluoromethylphenyl)-5-[-4-(1-adamantyl)-3-methoxyphenyl]-2,4-pentadienoic acid]",93%,–
"O=C(O)/C=C\C(=C\CCc1ccc(C23CC4CC(CC(C4)C2)C3)c(O)c1)c1cccc(C(F)(F)F)c1 [Structure 14q, (2Z),(4Z)-4-(3-Trifluoromethylphenyl)-7-[4-(1-adamantyl)-3-hydroxyphenyl]-2,4-heptadienoic acid]",100%,–
"CCCCCOc1cc(CC/C=C(/C=C\C(=O)O)c2cccc(C(F)(F)F)c2)ccc1C12CC3CC(CC(C3)C1)C2 [Structure 14r, (2Z),(4Z)-4-(3-Trifluoromethylphenyl)-7-[4-(1-adamantyl)-3-pentyloxyphenyl]-2,4-heptadienoic acid]",95%,–

# Same assay, conditions: Table 5, Structure 32 (Type IC); 100 μm as printed; enzyme isolated from human platelets
row,SMILES,% Inhibition of PLA2 at 100 μm
1,C/C(=C\CC(/C=C\C(=O)O)c1cccc(C(=O)O)c1)c1ccc2c(c1)C(C)(C)CCC2(C)C (racemic) [Structure 32c],67%
